From PubChem BioAssay AID330 (DTP/NCI, 2004)
“And” between values parts separate entries of the source, which are not always exact repeats. Equal values may be shown once. Toxic doses and inconclusive results are not listed.

Test system: P388 leukemia ip, CD2F1 mice, survival T/C
Experiment: NCI In Vivo Anticancer Drug Screen. Data for tumor model P388 Leukemia (intraperitoneal) in CD2F1 (CDF1) mice
Conditions: endpoint: median survival time, higher = longer survival
Method in brief: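 Mice carrying the transplanted tumor received test compound or vehicle. Survival was recorded in each group, and the value is the treated-group measurement divided by that of the vehicle-treated control group.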

[1] = dose: 12.5 mg/kg/injection, schedule: Q01DX009 (ip), vehicle: water
[2] = dose: 25.0 mg/kg/injection, schedule: Q01DX009 (ip), vehicle: water
[3] = dose: 60.0 mg/kg/injection, schedule: Q01DX005 (ip), vehicle: saline with Tween-80
[4] = dose: 120.0 mg/kg/injection, schedule: Q01DX005 (ip), vehicle: saline with Tween-80
[5] = dose: 240.0 mg/kg/injection, schedule: Q01DX005 (ip), vehicle: saline with Tween-80
[6] = dose: 25.0 mg/kg/injection, schedule: Q01DX009 (ip), vehicle: other
[7] = dose: 50.0 mg/kg/injection, schedule: Q01DX009 (ip), vehicle: other
[8] = dose: 200.0 mg/kg/injection, schedule: Q01DX009 (ip), vehicle: other
[9] = dose: 50.0 mg/kg/injection, schedule: Q01DX005 (ip), vehicle: saline with Tween-80
[10] = dose: 100.0 mg/kg/injection, schedule: Q01DX005 (ip), vehicle: saline with Tween-80
[11] = dose: 50.0 mg/kg/injection, schedule: Q01DX009 (ip), vehicle: saline
[12] = dose: 100.0 mg/kg/injection, schedule: Q01DX009 (ip), vehicle: saline
[13] = dose: 200.0 mg/kg/injection, schedule: Q01DX009 (ip), vehicle: saline
[14] = dose: 200.0 mg/kg/injection, schedule: Q01DX005 (ip), vehicle: saline with Tween-80

O=NNc1cnccn1
T/C (dose: 1.56 mg/kg/injection, schedule: Q01DX009 (ip), vehicle: water): 100 % of control
T/C (dose: 3.12 mg/kg/injection, schedule: Q01DX009 (ip), vehicle: water): 109 % of control and 100 % of control
T/C (dose: 6.25 mg/kg/injection, schedule: Q01DX009 (ip), vehicle: water): 110 % of control and 112 % of control and 97 % of control
T/C [1]: 116 % of control and 122 % of control
T/C [2]: 150 % of control
T/C (dose: 25.3 mg/kg/injection, schedule: Q01DX009 (ip), vehicle: other): 161 % of control
T/C (dose: 25.3 mg/kg/injection, schedule: Q01DX009 (ip), vehicle: water): 170 % of control
T/C (dose: 37.5 mg/kg/injection, schedule: Q01DX009 (ip), vehicle: water): 224 % of control and 245 % of control and 271 % of control
T/C (dose: 38.0 mg/kg/injection, schedule: Q01DX009 (ip), vehicle: other): 225 % of control
T/C (dose: 50.0 mg/kg/injection, schedule: Q01DX009 (ip), vehicle: water): 118 % of control [middle of 5 runs]
T/C (dose: 57.0 mg/kg/injection, schedule: Q01DX009 (ip), vehicle: water): 112 % of control

COc1ccc(OC)c(/C=C/c2cnnc3ccccc23)c1
T/C (dose: 18.75 mg/kg/injection, schedule: Q04DX003 (ip), vehicle: Klucel (hydroxypropylcellulose) (HPC)): 100 % of control
T/C (dose: 37.5 mg/kg/injection, schedule: Q04DX003 (ip), vehicle: Klucel (hydroxypropylcellulose) (HPC)): 111 % of control
T/C (dose: 75.0 mg/kg/injection, schedule: Q04DX003 (ip), vehicle: Klucel (hydroxypropylcellulose) (HPC)): 100 % of control
T/C (dose: 150.0 mg/kg/injection, schedule: Q04DX003 (ip), vehicle: Klucel (hydroxypropylcellulose) (HPC)): 106 % of control
T/C (dose: 300.0 mg/kg/injection, schedule: Q04DX003 (ip), vehicle: Klucel (hydroxypropylcellulose) (HPC)): 103 % of control

C=CC1(OC)CC1CO (centres undefined)
T/C (dose: 25.0 mg/kg/injection, schedule: Q01DX001 (ip), vehicle: Klucel (hydroxypropylcellulose) (HPC)): 99 % of control
T/C (dose: 50.0 mg/kg/injection, schedule: Q01DX001 (ip), vehicle: Klucel (hydroxypropylcellulose) (HPC)): 102 % of control
T/C (dose: 100.0 mg/kg/injection, schedule: Q01DX001 (ip), vehicle: Klucel (hydroxypropylcellulose) (HPC)): 91 % of control and 93 % of control
T/C (dose: 200.0 mg/kg/injection, schedule: Q01DX001 (ip), vehicle: Klucel (hydroxypropylcellulose) (HPC)): 95 % of control

O=C1CSC(c2ccc(F)cc2F)N1c1nncs1 (centres undefined)
T/C [3]: 92 % of control
T/C [4]: 91 % of control

ClC1=C(Cl)[C@@]2(Cl)[C@H]3[C@H]4C[C@H]([C@@H]5O[C@H]45)[C@H]3[C@@]1(Cl)C2(Cl)Cl
T/C (dose: 12.5 mg/kg/injection, schedule: Q04DX003 (ip), vehicle: Klucel (hydroxypropylcellulose) (HPC)): 95 % of control

COc1ccc(Cc2coc3ccccc3c2=O)cc1
T/C [3]: 102 % of control
T/C [4]: 92 % of control
T/C [5]: 100 % of control

CCOC(=O)CC(=O)Nc1cc2ccc(OC)c(OC)c2cc1C(=O)OCC
T/C [6]: 88 % of control
T/C [7]: 88 % of control
T/C (dose: 100.0 mg/kg/injection, schedule: Q01DX009 (ip), vehicle: other): 96 % of control
T/C [8]: 87 % of control
T/C (dose: 400.0 mg/kg/injection, schedule: Q01DX009 (ip), vehicle: other): 105 % of control

C=CC1(C)OC(=NC(C)(C)CO)c2cc(C)c(OC)cc21 (centres undefined)
T/C [9]: 98 % of control
T/C [10]: 97 % of control

CN(C)CCCNc1ccc(NCCCN(C)C)c2c1C(=O)c1ccccc1C2=O
T/C (dose: 3.75 mg/kg/injection, schedule: Q01DX009 (ip), vehicle: saline): 100 % of control
T/C (dose: 7.5 mg/kg/injection, schedule: Q01DX009 (ip), vehicle: saline): 102 % of control
T/C [1]: 104 % of control
T/C (dose: 15.0 mg/kg/injection, schedule: Q01DX009 (ip), vehicle: saline): 102 % of control
T/C [2]: 103 % of control
T/C (dose: 30.0 mg/kg/injection, schedule: Q01DX009 (ip), vehicle: saline): 100 % of control
T/C (dose: 60.0 mg/kg/injection, schedule: Q01DX009 (ip), vehicle: saline): 100 % of control

C/C1=N/N=C(N)\N=C(\C)CC1
T/C [11]: 90 % of control
T/C [12]: 102 % of control
T/C [13]: 101 % of control

CN(C)C1CS(=O)(=O)OC2=C1CCc1sccc12 (centres undefined)
T/C (dose: 60.0 mg/kg/injection, schedule: Q01DX005 (ip), vehicle: Klucel (hydroxypropylcellulose) (HPC)): 102 % of control
T/C (dose: 120.0 mg/kg/injection, schedule: Q01DX005 (ip), vehicle: Klucel (hydroxypropylcellulose) (HPC)): 100 % of control
T/C (dose: 240.0 mg/kg/injection, schedule: Q01DX005 (ip), vehicle: Klucel (hydroxypropylcellulose) (HPC)): 97 % of control

O=C(O)/C=N/NS(=O)(=O)c1cccc([N+](=O)[O-])c1
T/C [6]: 118 % of control and 119 % of control and 122 % of control
T/C [7]: 117 % of control
T/C [8]: 160 % of control

CC(=O)OCCOCNC(=S)NN1CCOCC1
T/C [3]: 100 % of control
T/C [4]: 95 % of control
T/C [5]: 100 % of control

CCCCCCN(CCCCCC)CC(O)c1cc(-c2ccccc2)nc2ccccc12 (centres undefined)
T/C [9]: 100 % of control
T/C [10]: 103 % of control
T/C [14]: 105 % of control

BrC(Br)=C(Br)Br
T/C [11]: 100 % of control
T/C [12]: 104 % of control
T/C [13]: 104 % of control

CCOc1cc2c(cc1C(CC)c1ccccc1)OCO2 (centres undefined)
T/C (dose: 50.0 mg/kg/injection, schedule: Q01DX005 (ip), vehicle: Klucel (hydroxypropylcellulose) (HPC)): 99 % of control
T/C (dose: 100.0 mg/kg/injection, schedule: Q01DX005 (ip), vehicle: Klucel (hydroxypropylcellulose) (HPC)): 96 % of control
T/C (dose: 200.0 mg/kg/injection, schedule: Q01DX005 (ip), vehicle: Klucel (hydroxypropylcellulose) (HPC)): 95 % of control

N#CCC(C#N)N1CCOCC1 (centres undefined)
T/C (dose: 25.0 mg/kg/injection, schedule: Q01DX009 (ip), vehicle: saline with Tween-80): 100 % of control
T/C (dose: 50.0 mg/kg/injection, schedule: Q01DX009 (ip), vehicle: saline with Tween-80): 100 % of control
T/C (dose: 100.0 mg/kg/injection, schedule: Q01DX009 (ip), vehicle: saline with Tween-80): 100 % of control

COc1ccc2c(c1)CC[C@@H]1[C@@H]2CC[C@]2(C)/C(=N\O)CC[C@@H]12
T/C (dose: 100.0 mg/kg/injection, schedule: Q04DX003 (ip), vehicle: saline with Tween-80): 90 % of control
T/C (dose: 200.0 mg/kg/injection, schedule: Q04DX003 (ip), vehicle: saline with Tween-80): 90 % of control
T/C (dose: 400.0 mg/kg/injection, schedule: Q04DX003 (ip), vehicle: saline with Tween-80): 100 % of control

CSc1nnc2sc3cc(C)ccc3n12
T/C (dose: 50.0 mg/kg/injection, schedule: Q01DX009 (ip), vehicle: Klucel (hydroxypropylcellulose) (HPC)): 102 % of control
T/C (dose: 100.0 mg/kg/injection, schedule: Q01DX009 (ip), vehicle: Klucel (hydroxypropylcellulose) (HPC)): 103 % of control
T/C (dose: 200.0 mg/kg/injection, schedule: Q01DX009 (ip), vehicle: Klucel (hydroxypropylcellulose) (HPC)): 102 % of control

CC(C)(C)SSC(=S)C(c1ccccc1)c1ccccc1
T/C (dose: 50.0 mg/kg/injection, schedule: Q01DX005 (ip), vehicle: saline + Tween-80 + alcohol): 105 % of control
T/C (dose: 100.0 mg/kg/injection, schedule: Q01DX005 (ip), vehicle: saline + Tween-80 + alcohol): 107 % of control
T/C (dose: 200.0 mg/kg/injection, schedule: Q01DX005 (ip), vehicle: saline + Tween-80 + alcohol): 96 % of control

Cc1ccc(-n2c(=S)n(-c3ccccc3C)c3nc4ccccc4nc2/c3=N\Nc2ccc(Cl)cc2)cc1
T/C [9]: 92 % of control
T/C [10]: 88 % of control
T/C [14]: 95 % of control

NC1=NS(=O)(=O)c2ccccc21
T/C [9]: 101 % of control
T/C [10]: 106 % of control
T/C [14]: 99 % of control
